From paper PMC8402032, “Unsymmetric Cisplatin-Based Pt(IV) Conjugates Containing a PARP-1 Inhibitor Pharmacophore Tested on Malignant Pleural Mesothelioma Cell Lines” (Molecules, 2021)

What was measured:
PARP-1 [1] = experiment: Western blot analysis of PARP-1 expression in MSTO-211H cells; format: cell-based, human; settings: 72 h, equitoxic (IC50) concentrations, whole cell lysate
Description: It is necessary to verify how much the presence of the bulky Fmoc group might affect the recognition of the PARP catalytic domain. It is important to recall that all PARPis designed as analogues of nicotinamide must contain a primary or secondary amide. Indeed, this is the case of 6 [27]. The effects of compounds 6–9 on the expression of PARP-1 were evaluated by treating MSTO-211H cells for 72 h with equitoxic (at their IC50) concentrations of complexes, followed by Western blot analysis of whole cell lysate. […] First of all, the higher cellular uptake of 6 and 7 increases the intracellular concentration of the Pt metabolite and, in particular, of the ligands, potentially PARPis (synergistic cellular accumulation). […]
For protein analysis, cells were extracted with 1% NP-40 lysis buffer (50 mM Tris-HCl pH 8.5 containing 1% NP-40, 150 mM NaCl, 10 mM EDTA, 10 mM NaF, 10 mM Na4P2O7, and 0.4 mM Na3VO4) with freshly added protease inhibitors (10 μg mL^−1 leupeptin, 4 μg mL^−1 pepstatin, and 0.1 U mL^−1 aprotinin). […] Following SDS-PAGE, proteins were transferred to nitrocellulose, reacted with specific antibodies, and then detected with peroxidase-conjugate secondary antibodies and chemioluminescent ECL reagent. Digital images were taken with the Bio-Rad ChemiDocTM Touch Imaging System and quantified using Bio-Rad Image Lab 5.2.1. […]

PARP-1 [2] = biological target: T1, PARP-1 (Homo sapiens, UniProt P09874); experiment: Cellular thermal shift assay (CETSA) for in-cell PARP-1 target engagement; format: binding; settings: MSTO-211H intact cells, 50 µM, 15 min; 52, 56 and 60 °C
T1 construct: endogenous in cells; host or cells: MSTO-211H cells
Description: In order to confirm that PARP-1 is the direct target of 6, the cellular thermal shift assay (CETSA®) was employed. This assay is based on the biophysical principle of ligand-induced thermal stabilization of target proteins. Indeed, ligand-bound proteins are stabilized by their interacting partner and melt at a higher temperature with respect to the native protein. The test involves the drug treatment of the cellular system of choice, the heating of the cell to different temperatures, and the quantification of the presence of target protein in the soluble fraction by Western blotting to validate and quantify target engagement of drugs in cells and tissues.
Multiple aliquots of MSTO-211H intact cells, previously incubated with the diluent, 3-ABA or 6, were heated to different temperatures ranging from 48 °C to 60 °C. After lysis, the soluble fractions were analyzed by SDS-PAGE followed by Western blot. In Figure 6, the stabilities of 6 and 3-ABA, at 52, 56, and 60 °C, are compared.
For the intact cell experiments, MSTO-211H cells were treated with the diluent of the compound (Ctrl) or 6 (50 µM) in complete medium for 15 min at 37 °C, in a humidified environment containing 5% CO2. […] The supernatants were then analyzed by SDS-PAGE followed by Western blot analysis as previously described. […]

[3] = tested on: REN (epithelioid) malignant pleural mesothelioma cells; experiment: Cell viability assay (Trypan blue dye exclusion), REN; format: cell-based, human; settings: 72 h treatment
Description: Complexes 6–9 were tested on a panel of human MPM cell lines together with CDDP and SAA1, added for comparison (Table 1). The half-maximal inhibitory concentration, IC50, was determined on MSTO-211H (biphasic phenotype), REN (epithelioid), BR95 (epithelioid), and MM98 (sarcomatoid) cancer cell lines to identify the most promising Pt(IV) conjugate to be further investigated. To determine the number of viable cells, the use of the dye exclusion assay was preferred to the colorimetric assay because of the heterogeneity in the energy metabolism between the different MPM cell lines. This may justify minor differences with respect to the previously published IC50 for CDDP [40].
Cells were seeded at a density of 10 × 10^4 cells per well in 6-well plates in RPMI medium supplemented with 10% fetal bovine serum (FBS), 100 μg mL^−1 streptomycin, and 10 μg mL^−1 penicillin and incubated overnight at 37 °C in a humidified environment containing 5% CO2 to allow adherence. Cisplatin was dissolved in 0.9% w/v aqueous NaCl brought to pH = 3 with HCl (final stock concentration 1 mM). The Pt(IV) complexes were dissolved in DMSO (final stock concentration 5 mM); the resulting solutions were microfiltered (0.45 μm) and their Pt content was checked by ICP-MS (see Section 3.5.2). These mother solutions were diluted in complete medium to the required concentration range.
Following 72 h of treatment with the diluent of the compound (Ctrl) or different doses of the Pt compounds, cells were trypsinized and stained with Trypan blue. The number of cells considered viable (unstained cells) was counted in a Bürker haemocytometer within 5 min after staining.

T1 sequence (P09874 whole entry): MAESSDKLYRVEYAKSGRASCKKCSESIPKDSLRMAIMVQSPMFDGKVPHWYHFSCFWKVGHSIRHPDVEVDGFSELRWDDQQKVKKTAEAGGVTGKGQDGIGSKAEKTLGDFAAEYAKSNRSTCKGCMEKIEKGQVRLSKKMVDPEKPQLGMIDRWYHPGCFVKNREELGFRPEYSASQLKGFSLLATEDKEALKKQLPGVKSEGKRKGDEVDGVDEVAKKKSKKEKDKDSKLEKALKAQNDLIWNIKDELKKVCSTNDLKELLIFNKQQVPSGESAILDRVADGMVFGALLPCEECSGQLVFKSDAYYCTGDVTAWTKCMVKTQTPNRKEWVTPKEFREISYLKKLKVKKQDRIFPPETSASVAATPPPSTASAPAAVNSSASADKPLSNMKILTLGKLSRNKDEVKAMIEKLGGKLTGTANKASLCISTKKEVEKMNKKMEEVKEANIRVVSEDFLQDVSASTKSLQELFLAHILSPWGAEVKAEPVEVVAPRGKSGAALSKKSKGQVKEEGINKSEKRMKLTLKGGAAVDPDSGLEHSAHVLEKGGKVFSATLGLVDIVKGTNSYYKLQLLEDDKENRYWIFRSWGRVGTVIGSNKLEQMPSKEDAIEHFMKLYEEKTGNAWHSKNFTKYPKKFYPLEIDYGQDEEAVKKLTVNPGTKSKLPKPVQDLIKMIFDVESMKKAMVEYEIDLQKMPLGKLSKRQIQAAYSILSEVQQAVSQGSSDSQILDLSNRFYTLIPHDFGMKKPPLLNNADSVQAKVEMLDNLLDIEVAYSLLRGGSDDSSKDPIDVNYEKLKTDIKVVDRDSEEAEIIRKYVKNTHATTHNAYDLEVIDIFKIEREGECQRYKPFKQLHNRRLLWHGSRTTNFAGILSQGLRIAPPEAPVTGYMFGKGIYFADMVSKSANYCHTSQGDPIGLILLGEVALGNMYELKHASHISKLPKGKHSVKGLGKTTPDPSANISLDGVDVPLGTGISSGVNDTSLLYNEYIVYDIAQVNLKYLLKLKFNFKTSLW

CC(=O)[O][Pt]([NH2])([NH2])([Cl])([Cl])[O]C(=O)CCNC(=O)c1cccc(NC(=O)OCC2c3ccccc3-c3ccccc32)c1 [Compound 6, (OC-6-44)-Acetato[3-(3-(fmoc-amino)-benzamido)-propanoato]-diammine-dichlorido-platinum(IV)]
PARP-1 expression (PARP-1 [1]): lower expression of PARP-1 in the series
thermal stability of PARP-1 protein levels (PARP-1 [2]): more stable to heating as compared with the control and 3-ABA groups
ratio IC50 (cisplatin)/IC50 (Pt(IV) complex), REN [3]: 1.9
IC50 ([3]; mean ± sd): 1590 ± 70 nM
